Read-outs that look alike come from different tables or passages of the source.
Legend:
[1] = system: Acute Liver Injury Induced by Carbon Tetrachloride; test: Protective effect on acute liver injury induced by carbon tetrachloride; type: in vivo, mice (ddY mice); settings: for Liver Damage Index: 50mg/kg orally in olive oil 6 hours before carbon tetrachloride (0.05ml/kg orally), visual score 0: normal, 2: slightly, 4: distinctly, 6: remarkably injured, n=5, CCl4 alone 6.0; for inhibition in vivo at 50 mg/kg: Mus musculus, po, 50mg/kg orally 6 hours before carbon tetrachloride (0.05ml/kg orally), CCl4 alone 0, Normal 100
Experimental: A test compound was dissolved or suspended in olive oil and administered orally at a dose of 50mg/kg to mice (ddY mice, ? , 23 ± 2g, n=5). After 6 hours, carbon tetrachloride (0.05ml/kg) was administered orally. 24 Hours after the administration of carbon tetrachloride, BSP (sodium sulfobromophthalene; 75mg/kg) was administered intravenously. Thirty minutes later, the cardiac blood was collected, and GPT (glutamic-pyruvic transaminase) activity and the retention rate of BSP in the plasma were measured. Further, the liver injury immediately after the collection of the blood was visually observed and evaluated by the following score for liver damage index. 0: normal 2: Slightly injured 4: distinctly injured 6: remarkably injured

[2] = system: mice (ddY mice); test: Acute toxicity test; type: in vivo; settings: oral in olive oil, mortality one week after the administration, n=5
Experimental: A test compound was dissolved or suspended in olive oil and administered orally to mice (ddY mice, ? , 23±2g, n=5). The acute toxicity value (LD₅₀) was determined from the mortality one week after the administration.

[3] = 24.5 h, retention rate of BSP in plasma 30 minutes after BSP 75mg/kg i.v., read-out: % Prophylaxis BSP
[4] = plasma GPT about 24.5 hours after CCl4, read-out: % Prophylaxis p-GPT

CC(=O)C(C(=O)c1ccc(Cl)cc1)=C1SC=CS1 [Compound 14, 2-(1,3-dithiol-2-ylidene)-1-(4-chlorophenyl)-1,3-butanedione]
Liver Damage Index [1]: 0.4
inhibition in vivo at 50 mg/kg [1, 3]: 113%
inhibition in vivo at 50 mg/kg [1, 4]: 100%

CC(=O)C(C(=O)c1ccc(N)cc1)=C1SC=CS1 [Compound 46, 2-(1,3-dithiol-2-ylidene)-1-(4-aminophenyl)-1,3-butanedione]
Liver Damage Index [1]: 0.4
inhibition in vivo at 50 mg/kg [1, 3]: 106%
inhibition in vivo at 50 mg/kg [1, 4]: 100%

CC(=O)C(C(=O)c1ccco1)=C1SC=CS1 [Compound 23, 2-(1,3-dithiol-2-ylidene)-1-(2-furyl)-1,3-butanedione]
Liver Damage Index [1]: 1.0
inhibition in vivo at 50 mg/kg [1, 3]: 110%
inhibition in vivo at 50 mg/kg [1, 4]: 94%

CC(=O)C(C(=O)c1ccc(Br)cc1)=C1SC=CS1 [Compound 15, 2-(1,3-dithiol-2-ylidene)-1-(4-bromophenyl)-1,3-butanedione]
Liver Damage Index [1]: 3.2
inhibition in vivo at 50 mg/kg [1, 3]: 105%
inhibition in vivo at 50 mg/kg [1, 4]: 100%

O=C(C(C(=O)C(F)(F)F)=C1SC=CS1)c1ccccc1 [Compound 31, 2-(1,3-dithiol-2-ylidene)-1-phenyl-4,4,4-trifluoro-1,3-butanedione]
Liver Damage Index [1]: 0.4
inhibition in vivo at 50 mg/kg [1, 3]: 106%
inhibition in vivo at 50 mg/kg [1, 4]: 100%

COc1ccc(C(=O)C(C(=O)c2ccc(OC)cc2)=C2SC=CS2)cc1 [Compound 36, 2-(1,3-dithiol-2-ylidene)-1,3-di(4-methoxyphenyl)-1,3-propanedione]
Liver Damage Index [1]: 0
inhibition in vivo at 50 mg/kg [1, 3]: 119%
inhibition in vivo at 50 mg/kg [1, 4]: 100%

CC(=O)C(C(=O)c1ccc2ccccc2n1)=C1SC=CS1 [Compound 30, 2-(1,3-dithiol-2-ylidene)-1-(2-quinolyl)-1,3-butanedione]
Liver Damage Index [1]: 2.0
inhibition in vivo at 50 mg/kg [1, 3]: 105%
inhibition in vivo at 50 mg/kg [1, 4]: 98%

O=C(C(C(=O)c1ccccc1)=C1SC=CS1)c1ccccc1 [Compound 34, 2-(1,3-dithiol-2-ylidene)-1,3-diphenyl-1,3-propanedione]
Liver Damage Index [1]: 0.8
inhibition in vivo at 50 mg/kg [1, 3]: 112%
inhibition in vivo at 50 mg/kg [1, 4]: 100%

CC(=O)C(C(=O)c1ccc(O)cc1)=C1SC=CS1 [Compound 45, 2-(1,3-dithiol-2-ylidene)-1-(4-hydroxyphenyl)-1,3-butanedione]
Liver Damage Index [1]: 0.2
inhibition in vivo at 50 mg/kg [1, 3]: 111%
inhibition in vivo at 50 mg/kg [1, 4]: 100%
acute toxicity value (LD50) [2]: at least 2 g

CC(=O)C(C(=O)c1cccc2ccccc12)=C1SC=CS1 [Compound 27, 2-(1,3-dithiol-2-ylidene)-1-(1-naphthyl)-1,3-butanedione]
Liver Damage Index [1]: 0
inhibition in vivo at 50 mg/kg [1, 3]: 100%
inhibition in vivo at 50 mg/kg [1, 4]: 100%
acute toxicity value (LD50) [2]: at least 2 g

CC(=O)C(C(=O)c1ccncc1)=C1SC=CS1 [Compound 22, 2-(1,3-dithiol-2-ylidene)-1-(4-pyridyl)-1,3-butanedione]
Liver Damage Index [1]: 0.2
inhibition in vivo at 50 mg/kg [1, 3]: 120%
inhibition in vivo at 50 mg/kg [1, 4]: 100%

CC(=O)C(C(=O)c1ccc2ccccc2c1)=C1SC=CS1 [Compound 28, 2-(1,3-dithiol-2-ylidene)-1-(2-naphthyl)-1,3-butanedione]
Liver Damage Index [1]: 0
inhibition in vivo at 50 mg/kg [1, 3]: 100%
inhibition in vivo at 50 mg/kg [1, 4]: 99%
acute toxicity value (LD50) [2]: at least 2 g

O=C(Cc1ccccc1)C(C(=O)c1ccccc1)=C1SC=CS1 [Compound 37, 2-(1,3-dithiol-2-ylidene)-1,4-diphenyl-1,3-butanedione]
Liver Damage Index [1]: 1.8
inhibition in vivo at 50 mg/kg [1, 3]: 99%
inhibition in vivo at 50 mg/kg [1, 4]: 100%

COc1ccc(C(=O)C(C(C)=O)=C2SC=CS2)cc1OC [Compound 18, 2-(1,3-dithiol-2-ylidene)-1-(3,4-dimethoxyphenyl)-1,3-butanedione]
Liver Damage Index [1]: 0.4
inhibition in vivo at 50 mg/kg [1, 3]: 100%
inhibition in vivo at 50 mg/kg [1, 4]: 54%

COc1ccccc1C(=O)C(C(C)=O)=C1SC=CS1 [Compound 16, 2-(1,3-dithiol-2-ylidene)-1-(2-methoxyphenyl)-1,3-butanedione]
Liver Damage Index [1]: 0.6
inhibition in vivo at 50 mg/kg [1, 3]: 95%
inhibition in vivo at 50 mg/kg [1, 4]: 99%

CC(=O)C(C(=O)c1ccc[nH]1)=C1SC=CS1 [Compound 25, 2-(1,3-dithiol-2-ylidene)-1-(2-pyrrolyl)-1,3-butanedione]
Liver Damage Index [1]: 2.2
inhibition in vivo at 50 mg/kg [1, 3]: 88%
inhibition in vivo at 50 mg/kg [1, 4]: 76%

COc1ccc(C(=O)C(C(C)=O)=C2SC=CS2)cc1 [Compound 17, 2-(1,3-dithiol-2-ylidene)-1-(4-methoxyphenyl)-1,3-butanedione]
Liver Damage Index [1]: 0
inhibition in vivo at 50 mg/kg [1, 3]: 100%
inhibition in vivo at 50 mg/kg [1, 4]: 100%
acute toxicity value (LD50) [2]: at least 2 g

CC(=O)C(C(=O)c1cccnc1)=C1SC=CS1 [Compound 21, 2-(1,3-dithiol-2-ylidene)-1-(3-pyridyl)-1,3-butanedione]
Liver Damage Index [1]: 0.8
inhibition in vivo at 50 mg/kg [1, 3]: 100%
inhibition in vivo at 50 mg/kg [1, 4]: 98%

CC(C)CC(=O)C(C(=O)c1ccccc1)=C1SC=CS1 [Compound 8, 2-(1,3-dithiol-2-ylidene)-5-methyl-1-phenyl-1,3-hexanedione]
Liver Damage Index [1]: 1.2
inhibition in vivo at 50 mg/kg [1, 3]: 110%
inhibition in vivo at 50 mg/kg [1, 4]: 100%
acute toxicity value (LD50) [2]: at least 2 g

O=C(C=Cc1ccccc1)C(C(=O)c1ccccc1)=C1SC=CS1 [Compound 38, 4-(1,3-dithiol-2-ylidene)-1,5-diphenyl-1-pentene-3,5-dione]
Liver Damage Index [1]: 3.2
inhibition in vivo at 50 mg/kg [1, 3]: 96%
inhibition in vivo at 50 mg/kg [1, 4]: 66%

CC(=O)C(C(=O)c1cnccn1)=C1SC=CS1 [Compound 26, 2-(1,3-dithiol-2-ylidene)-1-pyrazinyl-1,3-butanedione]
Liver Damage Index [1]: 0.4
inhibition in vivo at 50 mg/kg [1, 3]: 99%
inhibition in vivo at 50 mg/kg [1, 4]: 96%

CC(=O)C(C(=O)c1cccs1)=C1SC=CS1 [Compound 24, 2-(1,3-dithiol-2-ylidene)-1-(2-thienyl)-1,3-butanedione]
Liver Damage Index [1]: 0
inhibition in vivo at 50 mg/kg [1, 3]: 102%
inhibition in vivo at 50 mg/kg [1, 4]: 100%

CC=CC(=O)C(C(=O)c1ccccc1)=C1SC=CS1 [Compound 11, 2-(1,3-dithiol-2-ylidene)-1-phenyl-4-hexene-1,3-dione]
Liver Damage Index [1]: 0.8
inhibition in vivo at 50 mg/kg [1, 3]: 105%
inhibition in vivo at 50 mg/kg [1, 4]: 100%

CC(=O)C(C(=O)Cc1ccccc1)=C1SC=CS1 [Compound 32, 3-(1,3-dithiol-2-ylidene)-1-phenyl-2,4-pentanedione]
Liver Damage Index [1]: 0.4
inhibition in vivo at 50 mg/kg [1, 3]: 124%
inhibition in vivo at 50 mg/kg [1, 4]: 95%

CCCC(=O)C(C(=O)c1ccccc1)=C1SC=CS1 [Compound 7, 2-(1,3-dithiol-2-ylidene)-1-phenyl-1,3-hexanedione]
Liver Damage Index [1]: 1.6
inhibition in vivo at 50 mg/kg [1, 3]: 108%
inhibition in vivo at 50 mg/kg [1, 4]: 100%
acute toxicity value (LD50) [2]: at least 2 g

CC(=O)C(C(=O)c1ccc(C)cc1)=C1SC=CS1 [Compound 12, 2-(1,3-dithiol-2-ylidene)-1-(4-methylphenyl)-1,3-butanedione]
Liver Damage Index [1]: 0.6
inhibition in vivo at 50 mg/kg [1, 3]: 114%
inhibition in vivo at 50 mg/kg [1, 4]: 100%
acute toxicity value (LD50) [2]: at least 2 g

O=C(C(C(=O)c1ccc(Cl)cc1)=C1SC=CS1)c1ccc(Cl)cc1 [Compound 35, 2-(1,3-dithiol-2-ylidene)-1,3-di(4-chlorophenyl)-1,3-propanedione]
Liver Damage Index [1]: 0
inhibition in vivo at 50 mg/kg [1, 3]: 114%
inhibition in vivo at 50 mg/kg [1, 4]: 100%

CC(=O)C(C(=O)c1ccc([N+](=O)[O-])cc1)=C1SC=CS1 [Compound 19, 2-(1,3-dithiol-2-ylidene)-1-(4-nitrophenyl)-1,3-butanedione]
Liver Damage Index [1]: 1.6
inhibition in vivo at 50 mg/kg [1, 3]: 100%
inhibition in vivo at 50 mg/kg [1, 4]: 100%

CC(C)(C)C(=O)C(C(=O)c1ccccc1)=C1SC=CS1 [Compound 9, 2-(1,3-dithiol-2-ylidene)-4,4-dimethyl-1-phenyl-1,3-pentanedione]
Liver Damage Index [1]: 0.4
inhibition in vivo at 50 mg/kg [1, 3]: 103%
inhibition in vivo at 50 mg/kg [1, 4]: 100%

CC(=O)C(C(=O)C=Cc1ccccc1)=C1SC=CS1 [Compound 33, 4-(1,3-dithiol-2-ylidene)-1-phenyl-1-hexene-3,5-dione]
Liver Damage Index [1]: 4.2
inhibition in vivo at 50 mg/kg [1, 3]: 86%
inhibition in vivo at 50 mg/kg [1, 4]: 77%

CC(=O)C(C(=O)c1cc2ccccc2[nH]1)=C1SC=CS1 [Compound 29, 2-(1,3-dithiol-2-ylidene)-1-(2-indolyl)-1,3-butanedione]
Liver Damage Index [1]: 0.8
inhibition in vivo at 50 mg/kg [1, 3]: 104%
inhibition in vivo at 50 mg/kg [1, 4]: 100%

Reference: patent publication EP0210284B1, “1,3-Dithiol-2-ylidene derivatives” (priority 1985, dated 1987)
